# Experimental data from US20060257480A1, “Pharmaceutical formulations of amyloid inhibiting compounds” (priority 2005, published 2006).
# How the values were obtained:
# [1] = Example 9 Part I: single oral dose pharmacokinetics of NC-758-1 (Table 5 tablet) in healthy elderly; assay type: in vivo; settings: both sexes, human, plasma, elderly male and female, fasted; for AUC(0-inf) / AUC(0-t) / Cmax: mean; for Tmax: median
# Source text: (§1) In the following examples and elsewhere herein, terms are as defined below. The pharmacokinetic parameters were derived by non-compartmental analysis using WinNonlin° (Pharsight Corporation, Mountain View, Calif.) or SAS® for Windows® (SAS Institute Inc., Cary, N.C.).
# Part I—The pharmacokinetic profile and the effect of food on single oral doses of 3-APS free acid (modified-release enteric-coated tablet as described in Table 5 above, hereinafter “NC-758-1“) in healthy male and female elderly (≧55 years) volunteers. For doses at multiples of 50 mg, multiple 50 mg tables are administered. The test is an open label, three-period crossover study to assess the pharmacokinetic profile of 3 single oral doses of NC-758-1 in healthy elderly (≧55 years) male and female subjects. The blood samples are collected during 24 h following dosing. Plasma concentrations of 3-APS are determined using a validated LC-MS/MS method.
# [2] = Example 7 Part II: food effect on single 200 mg oral dose pharmacokinetics (Table 3 formulation); assay type: in vivo, human; settings: 200 mg single oral, young male
# Experimental: as §1
# Following single oral dosing of 200 mg 3-APS (modified-release coated formulation as described in Table 3 above) to young male subjects (aged between 18 and 45 years) under fasted and fed (high fat) conditions, maximum plasma concentrations of 3-APS are attained at 5 and 13.5 h post-dose under fasted and fed conditions, respectively (Table 9A).
# [3] = Example 13: single 150 mg (3 × 50 mg) oral dose pharmacokinetics in healthy elderly male volunteers, fasting and fed; assay type: in vivo, human; settings: 150 mg (3 × 50 mg) single oral, Fasting Conditions, mean
# Experimental: as §1
# A single dose study of 3-APS Modified-Release Coated Tablets (of Table 5 above) in healthy elderly male volunteers following a 150 mg oral dose administration under fed conditions is conducted. For the 150 mg dose, three 50 mg tables are administered.
# [4] = Example 7 Part I: single rising oral dose pharmacokinetics of NC-758 (Table 3 tablet), plasma 3-APS by LC-MS/MS; assay type: in vivo, human; settings: for AUC(0-inf) / Tmax / Cmax / AUC(0-t): human, plasma, fasted; for AUC(0-inf) / Cmax / AUC(0-t): mean; for Tmax: median; for Cmax / AUC(0-t): male, po; for AUC(0-t): read-out: AUC0-Tlast
# Source text: as §1
# Part I—The pharmacokinetic profile and the effect of food on single rising oral doses of 3-APS free acid (modified-release enteric-coated tablet, as described in Table 3 above, hereinafter “NC-758”) in healthy male young (18-45 years) volunteers is determined. For doses at multiples of 100 mg, multiple 100 mg tables are administered. The pharmacokinetics of a single oral dose of NC-758 is also determined in a group of healthy male elderly (≧55 years old) volunteers. The test is a randomized, double-blind, placebo-controlled study to assess the pharmacokinetic profile of 4 single rising oral doses of NC-758 in healthy young (18-45 years) male subjects. Blood samples are collected during 24 h following dosing. Plasma concentrations of 3-APS are determined using a validated LC-MS/MS method.
# Aβ42 = target: T1, Aβ42 (Homo sapiens, UniProt P05067); experiment: Example 11 additional tests: CSF Aβ42 levels and Aβ42/Aβ40 ratio in treated patients; assay type: in vivo
# T1 construct: from tissue; host or cells: cerebrospinal fluid of AD patients treated with 3-APS
# [5] = dog, in vivo
# Experimental: (§2) Furthermore, the non-hygroscopic nature of the acid form makes it desirable as active pharmaceutical ingredient. To further protect against any possible gastrointestinal intolerance that could result from the acid form, the tablets are enteric-coated and a modified-release agent is added to control any rapid release of the drug in the stomach and the intestine, respectively.
# [6] = Example 10: 3-APS concentration in cerebrospinal fluid (CSF) of AD patients; assay type: in vivo, human; settings: additional tests, treated patients
# Source text: (Patients having a CSF level below the lower limit of quantitation of the assay are considered as zero.) CSF concentrations of 3-APS on Day 2 of Week 12 after twice daily oral administration for 12 weeks are as follows: […]
# [7] = Example 9 Part II: food effect on single 100 mg oral dose pharmacokinetics in elderly (Table 5 formulation); assay type: in vivo; settings: both sexes, human, plasma; 100 mg single oral, elderly male and female, Fasting Arm; median
# Experimental: as §1
# Following single oral dosing of 100 mg 3-APS (modified-release coated formulation modified-release enteric-coated tablet as described in Table 5 above) to elderly (55 years or older) male and female subjects under fasted and fed (high fat) conditions, maximum plasma concentrations of 3-APS are attained at 5 and 10.5 h post-dose under fasted and fed conditions, respectively (Table 12A below and FIG. 5 showing the Mean Plasma Concentration-Time Profiles of 3-APS under Fasted and Fed Conditions following Single Oral Administration of 100 mg to Elderly Male and Female Subjects).
# [8] = Example 8 Part I: multiple rising oral dose pharmacokinetics of NC-758; assay type: in vivo; settings: human, plasma, fasted; for AUC(0-inf) / AUC(0-t) / Cmax: mean; for AUC(0-t): read-out: AUC0-12h; for Tmax: median
# Experimental: as §1
# For doses at multiples of 100 mg, multiple 100 mg tables are administered. […] In Part I, 3-APS is administered as a single dose on Days 1 and 12 and on Days 2-11, twice daily at 12 hour intervals.
# [9] = Gastrointestinal tolerability of sodium salt capsules (certain studies); assay type: in vivo; settings: solid dosage form (capsules)
# Experimental: as §2
# [10] = 100 mg single oral, young (18-45 years) male
# [11] = 200 mg single oral, young (18-45 years) male
# [12] = 300 mg single oral, young (18-45 years) male
# [13] = 100 mg, 100 mg single oral, young (18-45 years) male
# [14] = 200 mg, 200 mg single oral, elderly (>55 years) male
# [15] = 200 mg, 200 mg single oral, young (18-45 years) male
# [16] = 300 mg, 300 mg single oral, young (18-45 years) male
# [17] = 400 mg, 400 mg single oral, young (18-45 years) male
# [18] = both sexes, 200 mg, 200 mg BID, Day 1, elderly (≧55 years) male and female
# [19] = both sexes, 200 mg, 200 mg BID, Day 12, elderly (≧55 years) male and female
# [20] = male, 100 mg, 100 mg BID, Day 1, young (18-45 years) male
# [21] = male, 100 mg, 100 mg BID, Day 12, young (18-45 years) male
# [22] = male, 200 mg, 200 mg BID, Day 1, young (18-45 years) male
# [23] = male, 200 mg, 200 mg BID, Day 12, young (18-45 years) male
# T1 sequence (P05067 672-713 limits assumed): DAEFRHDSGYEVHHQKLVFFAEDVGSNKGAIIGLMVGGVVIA
smiles,measurement,setting,value
"NCCCS(=O)(=O)O [3-APS, 3-amino-1-propanesulfonic acid]",AUC(0-inf),[1]; 50 mg single oral,1.57 µg·h/mL
same,AUC(0-t),[1]; 50 mg single oral,1.54 µg·h/mL
same,Cmax,[1]; 50 mg single oral,0.469 µg/mL
same,Tmax,[1]; 50 mg single oral,5 h
same,AUC(0-inf),[1]; 100 mg single oral,2.87 µg·h/mL
same,AUC(0-t),[1]; 100 mg single oral,3.13 µg·h/mL
same,Cmax,[1]; 100 mg single oral,0.745 µg/mL
same,Tmax,[1]; 100 mg single oral,5 h
same,AUC(0-inf),[1]; 150 mg single oral,4.5 µg·h/mL
same,AUC(0-t),[1]; 150 mg single oral,5.3 µg·h/mL
same,Tmax,[1]; 150 mg single oral,5 h
same,Cmax,"[2]; Fed Arm (high fat), mean",0.631 µg/mL
same,AUC(0-t),"[2]; human, plasma, Fasting Arm, mean, read-out: AUC0-Tlast",2.2 µg·h/mL
same,Tmax,"[2]; human, plasma, Fasting Arm, median",5 h
same,AUC(0-inf),"[2]; human, plasma, Fed Arm (high fat), mean",4.5 µg·h/mL
same,AUC0-Tlast,[3],3.211 µg·h/mL
same,AUC∞,[3],3.284 µg·h/mL
same,AUC0-t greater in elderly subjects compared to young subjects,"[4]; 200 mg dose, Tables 9 and 10",approximately 70%
same,Cmax greater in elderly subjects compared to young subjects,"[4]; 200 mg dose, Tables 9 and 10",approximately 70%
same,AUC(0-inf),[4]; [10],1.42 µg·h/mL
same,Tmax,[4]; [10],5 h
same,AUC(0-inf),[4]; [11],2.49 µg·h/mL
same,Tmax,[4]; [11],5 h
same,AUC(0-inf),[4]; [12],4.46 µg·h/mL
same,Tmax,[4]; [12],5 h
same,Tmax,"[4]; 400 mg single oral, young (18-45 years) male",2 h
same,Cmax,[4]; [13],0.41 µg/mL
same,AUC(0-t),[4]; [13],1.39 µg·h/mL
same,Cmax,[4]; [14],1.09 µg/mL
same,AUC(0-t),[4]; [14],4.88 µg·h/mL
same,Cmax,[4]; [15],0.661 µg/mL
same,AUC(0-t),[4]; [15],2.9 µg·h/mL
same,Cmax,[4]; [16],0.904 µg/mL
same,AUC(0-t),[4]; [16],4 µg·h/mL
same,Cmax,[4]; [17],5.37 µg/mL
same,AUC(0-t),[4]; [17],16 µg·h/mL
same,ratio of Aβ42/Aβ40,"Aβ42; CSF, treated patients (FIGS. 2, 3 and 4)",reduced
same,CSF Aβ42 levels,Aβ42; treated patients (FIG. 1),reduced
same,tolerability,[5],better tolerated than the sodium salt form
same,crossing of the blood/brain barrier,[6],crossed the blood/brain barrier
same,Tmax,[7],5 h
same,AUC(0-inf),"[8]; both sexes, 200 mg BID, Day 1, elderly (≧55 years) male and female",5.5 µg·h/mL
same,AUC(0-t),"[8]; both sexes, 200 mg BID, Day 12, elderly (≧55 years) male and female",6.29 µg·h/mL
same,Cmax,[8]; [18],0.897 µg/mL
same,AUC(0-t),[8]; [18],5.02 µg·h/mL
same,Tmax,[8]; [18],6 h
same,Cmax,[8]; [19],0.88 µg/mL
same,Tmax,[8]; [19],5 h
same,AUC(0-inf),"[8]; 100 mg BID, Day 1, young (18-45 years) male",1.02 µg·h/mL
same,AUC(0-inf),"[8]; 200 mg BID, Day 1, young (18-45 years) male",3.21 µg·h/mL
same,Cmax,[8]; [20],0.282 µg/mL
same,AUC(0-t),[8]; [20],1.33 µg·h/mL
same,Tmax,[8]; [20],6 h
same,Cmax,[8]; [21],0.256 µg/mL
same,AUC(0-t),[8]; [21],1.43 µg·h/mL
same,Tmax,[8]; [21],2.5 h
same,Cmax,[8]; [22],0.517 µg/mL
same,AUC(0-t),[8]; [22],2.87 µg·h/mL
same,Tmax,[8]; [22],4 h
same,Cmax,[8]; [23],0.581 µg/mL
same,AUC(0-t),[8]; [23],4.15 µg·h/mL
same,Tmax,[8]; [23],4 h
"NCCCS(=O)(=O)[O-].[Na+] [3-amino-1-propanesulfonic acid, sodium salt]",gastrointestinal symptoms (i.e. nausea and vomiting),[9],associated with gastrointestinal symptoms
